Measured values published in patent US20140309210A1, “INDAZOLE COMPOUNDS, COMPOSITIONS AND METHODS OF USE THEREOF” (Genentech, Inc., priority 2011, published 2014).

Each compound was assayed against T1, purified ITK (Invitrogen PV3875) (Homo sapiens, UniProt Q08881) (assay: ITK peptide phosphorylation assay (Caliper LabChip or LCMS)). Conditions: Table 1, Examples 141-279.
T1 construct: purchased Invitrogen PV3875
T1 sequence (Q08881 1-620): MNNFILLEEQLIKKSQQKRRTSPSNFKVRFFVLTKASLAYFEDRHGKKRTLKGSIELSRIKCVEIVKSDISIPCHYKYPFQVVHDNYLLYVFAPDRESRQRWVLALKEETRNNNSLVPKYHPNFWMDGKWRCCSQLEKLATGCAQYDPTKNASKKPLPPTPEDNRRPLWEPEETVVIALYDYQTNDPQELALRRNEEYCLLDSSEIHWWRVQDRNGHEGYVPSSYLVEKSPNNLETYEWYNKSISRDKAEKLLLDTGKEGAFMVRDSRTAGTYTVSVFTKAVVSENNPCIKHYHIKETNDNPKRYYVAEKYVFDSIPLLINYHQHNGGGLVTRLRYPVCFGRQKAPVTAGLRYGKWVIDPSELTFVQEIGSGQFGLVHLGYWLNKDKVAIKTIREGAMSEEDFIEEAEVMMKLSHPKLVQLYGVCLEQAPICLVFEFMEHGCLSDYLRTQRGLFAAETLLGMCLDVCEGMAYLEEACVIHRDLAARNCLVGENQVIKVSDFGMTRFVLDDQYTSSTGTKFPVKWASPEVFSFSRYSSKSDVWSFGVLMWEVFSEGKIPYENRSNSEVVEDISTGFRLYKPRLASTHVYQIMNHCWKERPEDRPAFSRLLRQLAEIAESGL
Format: biochemical
Outline: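 Ki values come from Morrison quadratic fits of activity versus inhibitor concentration, adjusted for ATP-competitive inhibition against ATP/Km,app. Substrate and phosphopeptide from purified ITK reactions were resolved either microfluidically (Caliper, EDTA stop) or by LC-MS MRM (TCA stop).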
A Ki of 4.81 nM was found for `N#CCCn1cc(NC(=O)c2n[nH]c3cc(-c4cn[nH]c4)ccc23)cn1` [Example 261, N-[1-(2-cyanoethyl)py-razol-4-yl]-6-(1H-pyrazol-4-yl)-1H-indazole-3-carboxamide] in this work.
A Ki of 4.69 nM was found for `O=C(Nc1cnn(CC2CNC2)c1)c1n[nH]c2cc(-c3cn[nH]c3)ccc12` [Example 262, N-[1-(azetidin-3-ylmethyl)pyrazol-4-yl]-6-(1H-pyrazol-4-yl)-1H-indazole-3-carboxamide] in this work.
A Ki of 5.14 nM was found for `CNCCC(c1ccccc1)n1cc(NC(=O)c2n[nH]c3ccccc23)cn1` (stereo not shown) [Example 263, N-[1-[3-(methylamino)-1-phenyl-propyl]pyrazol-4-yl]-1H-indazole-3-carboxamide] in this work.
A Ki of 55.5 nM was found for `CNCCC(c1ccccc1)n1cc(NC(=O)c2n[nH]c3ccccc23)cn1` (stereo not shown) [Example 264, N-[1-[3-(methylamino)-1-phenyl-propyl]pyrazol-4-yl]-1H-indazole-3-carboxamide] in this work.
A Ki of 23.8 nM was found for `CC(=O)N(C)CCC(c1ccccc1)n1cc(NC(=O)c2n[nH]c3ccccc23)cn1` (stereo not shown) [Example 265, N-[1-[3-[acetyl(meth-yl)amino]-1-phenyl-propyl]pyrazol-4-yl]-1H-indazole-3-carboxamide] in this work.
A Ki of 100 nM was found for `CC(=O)N(C)CCC(c1ccccc1)n1cc(NC(=O)c2n[nH]c3ccccc23)cn1` (stereo not shown) [Example 266, N-[1-[3-[acetyl(methyl)a-mino]-1-phenyl-propyl]pyrazol-4-yl]-1H-indazole-3-carboxamide] in this work.
A Ki of 76.9 nM was found for `CN(C)CCC(c1ccccc1)n1cc(NC(=O)c2n[nH]c3ccccc23)cn1` (stereo not shown) [Example 267, N-[1-[3-(dimethylamino)-1-phenyl-propyl]pyrazol-4-yl]-1H-indazole-3-carboxamide] in this work.
A Ki of 5.98 nM was found for `CN(C)CCC(c1ccccc1)n1cc(NC(=O)c2n[nH]c3ccccc23)cn1` (stereo not shown) [Example 268, N-[1-[3-(dimethylamino)-1-phenyl-propyl]pyrazol-4-yl]-1H-indazole-3-carboxamide] in this work.
A Ki of 105 nM was found for `CN(CCC(c1ccccc1)n1cc(NC(=O)c2n[nH]c3ccccc23)cn1)CC(F)(F)F` (stereo not shown) [Example 269, N-[1-[3-[methyl(2,2,2-trifluoroethyl)a-mino]-1-phenyl-propyl]pyrazol-4-yl]-1H-indazole-3-carboxamide] in this work.
A Ki of 8.92 nM was found for `CN(CCC(c1ccccc1)n1cc(NC(=O)c2n[nH]c3ccccc23)cn1)CC(F)(F)F` (stereo not shown) [Example 270, N-[1-[3-[methyl(2,2,2-trifluoroethyl)a-mino]-1-phenyl-propyl]pyrazol-4-yl]-1H-indazole-3-carboxamide] in this work.
A Ki of 6.92 nM was found for `CN(CCC(c1ccccc1)n1cc(NC(=O)c2n[nH]c3ccccc23)cn1)S(C)(=O)=O` (stereo not shown) [Example 271] in this work.
A Ki of 41.6 nM was found for `CN(CCC(c1ccccc1)n1cc(NC(=O)c2n[nH]c3ccccc23)cn1)S(C)(=O)=O` (stereo not shown) [Example 272, N-[1-[3-[methyl(methyl-sulfonyl)amino]-1-phenyl-propyl]pyrazol-4-yl]-1H-indazole-3-carboxamide] in this work.
A Ki of 8.3 nM was found for `CN(CCC(c1ccccc1)n1cc(NC(=O)c2n[nH]c3ccccc23)cn1)CC(F)F` (stereo not shown) [Example 273, N-[1-[3-[2,2-difluoroethyl(meth-yl)amino]-1-phenyl-propyl]pyrazol-4-yl]-1H-indazole-3-carboxamide] in this work.
A Ki of 84.8 nM was found for `CN(CCC(c1ccccc1)n1cc(NC(=O)c2n[nH]c3ccccc23)cn1)CC(F)F` (stereo not shown) [Example 274, N-[1-[3-[2,2-difluoroethyl(meth-yl)amino]-1-phenyl-propyl]pyrazol-4-yl]-1H-indazole-3-carboxamide] in this work.
A Ki of 7.83 nM was found for `CN(C)CC(c1ccccc1)n1cc(NC(=O)c2n[nH]c3ccccc23)cn1` (stereo not shown) [Example 275, N-[1-[2-(dimethylamino)-1-phenyl-ethyl]pyrazol-4-yl]-1H-indazole-3-carboxamide] in this work.
A Ki of 152 nM was found for `CN(C)CC(c1ccccc1)n1cc(NC(=O)c2n[nH]c3ccccc23)cn1` (stereo not shown) [Example 276, N-[1-[2-(dimethylamino)-1-phenyl-ethyl]pyrazol-4-yl]-1H-indazole-3-carboxamide] in this work.
A Ki of 114 nM was found for `CS(=O)(=O)CCC(c1ccccc1)n1cc(NC(=O)c2n[nH]c3ccccc23)cn1` (stereo not shown) [Example 277, N-[1-(3-methylsulfonyl-1-phenyl-propyl)pyrazol-4-yl]-1H-indazole-3-carboxamide] in this work.
A Ki of 1.29 nM was found for `CN(C)CCC(c1ccccc1)n1cc(NC(=O)c2n[nH]c3cc(-c4cn[nH]c4)cnc23)cn1` (stereo not shown) [Example 278, N-[1-[3-(dimethylamino)-1-phenyl-propyl]pyrazol-4-yl]-6-(1H-pyrazol-4-yl)-1H-pyrazolo[4,3-b]pyridine-3-carboxamide] in this work.
A Ki of 36.7 nM was found for `CN(C)CCC(c1ccccc1)n1cc(NC(=O)c2n[nH]c3cc(-c4cn[nH]c4)cnc23)cn1` (stereo not shown) [Example 279, N-[1-[3-(dimethylamino)-1-phenyl-propyl]pyrazol-4-yl]-6-(1H-pyrazol-4-yl)-1H pyrazolo[4,3-b]pyridine-3-carboxamide] in this work.
